Data published in a melting point compilation (Tetko et al.; mined from patent text by program, amines drawn as free bases though some values may be those of a salt).

Row | SMILES | melting point [°C]
1 | CC(=O)OC1CC(OC(C)=O)C2(C)C(C1)C(Br)C(Br)C1C3CCC(C(C)CCCC(C)C)C3(C)CCC12 (configuration not stated) | 155 to 156
2 | O=C(O)CN(Cc1ccc(OCc2ccc(F)cc2)cc1)C(=O)c1cn2cc(-c3ccc(Cl)cc3)ccc2n1 | 206
3 | Cc1cnc(-c2cc(C(F)(F)F)nn2C)nc1Oc1cc(C(F)(F)F)nn1C | 113
4 | CCOC(=O)c1nc2n(c(=O)c1O)CCC=C2c1ccccc1 | 151
5 | Cc1ccc(C(=O)Nc2ccc3[nH]cc(C4CCN(C)CC4)c3n2)s1 | 123 to 127
6 | Oc1cccc2c1cc(C1=NCCN1)n2-c1ccccc1 | > 270
7 | CCCCc1cc(CCCC)n2ncc(Br)c2n1 | 47 to 48
8 | Cc1cccc(Cl)c1N1C(=O)CON(C)C1=S | 176 to 178
9 | CCCCCCCCCCCCCCCCCCOc1cc(OCCC[PH](=O)OCC)cc(N(CC(=O)O)CC(=O)O)c1 (configuration not stated) | 105 to 108
10 | NS(=O)(=O)c1ccc(N2C(=O)CN(c3ccccc3)C2=O)c(Cl)c1 | 241 to 243
11 | CCN(CC)CCn1c2ccccc2c(=NN=C2SCCN2C)c2ccccc21 | 123 to 125
12 | O=C(OCc1ccccc1)N1c2ccc(I)cc2CC1CO (configuration not stated) | 110 to 111
13 | COc1ccc(Cl)cc1C(=O)NCCc1ccc(Br)cc1 | 104 to 109
14 | O=C(O)c1cccc2[nH]c(=O)c(-c3csc(-c4ccncc4)n3)cc12 | > 250
15 | Cc1cccc2c1CCNC2=O | 141 to 143
16 | CC(C)(C)c1cc(P(c2ccccc2)c2ccccc2)cc(C(C)(C)C)c1O | 92 to 93
17 | C[C@@H](CCCCC(=O)O)NC(=O)OCc1ccccc1 | 82 to 83
18 | CCc1cc2c(s1)SCCc1cc(=O)n(-c3ccc(Cl)cc3)nc1-2 | 127 to 128
19 | CCCN(c1cccc(-c2ccnc3c([N+](=O)[O-])cnn23)c1)S(C)(=O)=O | 165 to 167
20 | COc1cc(S(=O)(=O)CCO)ccc1[N+](=O)[O-] | 95 to 96
21 | O=C(CCc1ccccc1)c1c(O)c2cccnc2n(-c2ccccc2)c1=O | 233 to 234
22 | CN1C(C)(C)CC(NC(=O)c2ccc(-c3nc4ccc(Cl)cc4[nH]3)cc2)CC1(C)C | > 250
23 | O=C(Nc1nccs1)C(CC1CCCC1)c1ccc(Cl)c([N+](=O)[O-])c1 (configuration not stated) | 68 to 72
24 | c1ccc2oc(NCc3ccncc3)nc2c1 | 148
25 | COC1(c2ccccc2)C=CC(=O)C=C1 | 89

Row | SMILES | melting point [°C]
26 | COC(=O)c1c(C)ccc(C(O)=S)c1C | 178
27 | CNc1ccc2sc3ccccc3c(=O)c2c1 | 172 to 175
28 | COC(=O)CCCC#Cc1cc(Cl)ccc1NS(=O)(=O)c1ccc2sc(C)nc2c1 | 68 to 72
29 | O=NSC1(CCOC(=O)CCC(=O)O)C2CC3CC(C2)CC1C3 (configuration not stated) | 63 to 70
30 | Cc1cc(C)nc(NC(=O)NS(=O)(=O)c2ccccc2OS(=O)(=O)N(C)C)n1 | 195 to 196
31 | c1cc2c(c(N3CCNCC3)n1)CCO2 | 89.5
32 | O=C1Nc2cccnc2N(CC#CCN2CCCC2)c2ccccc21 | 153
33 | O=C(O)CN1C(=O)C(=Cc2ccc(C(=O)O)cc2)SC1=S | > 300
34 | Cc1cc2c(cc1Br)C(C)(C)C=CC2(C)C | 103 to 105
35 | CCOC(=O)Nc1ccc2ccccc2c1 | 69 to 70.5
36 | CCOC(=O)c1ccc(OCCCC2CCN(c3ccc(-c4ccc(F)cc4)nn3)CC2)cc1 | 160
37 | O=C(NCc1ccccc1)c1ccnc(NC(=O)c2cccs2)c1 | 160 to 162
38 | CC(C)(C)OC(=O)Nc1cc(N2CCSCC2)c(I)cc1[N+](=O)[O-] | 132 to 134
39 | COc1ccc(C2=NN(C3CCN(C(=O)CS(C)(=O)=O)CC3)C(=O)[C@@H]3CC=CC[C@H]23)cc1OC | 169 to 170
40 | c1nc(Cc2ccc3c(c2)COCO3)c[nH]1 | 145
41 | COC1(c2cccc(S(=O)(=O)c3ccc4c(ccc(=O)n4C)c3)c2)CCOCC1 | 204 to 207
42 | N#Cc1ccc(OCCN2CCN(c3cc(Cl)nnc3Cl)CC2)cc1 | 175 to 177
43 | CCCCCCCCCCCCC(=O)Nc1ccn(C2OC(CO)C(O)C2O)c(=O)n1 (configuration not stated) | 143 to 146
44 | CC(N)c1ccc2c(c1)C(c1ccccc1F)=NC(C)(C)C(=O)N2C (configuration not stated) | 50 to 51
45 | CC1(N)CCN(C2=Nc3c(nc(Cl)nc3Nc3ccc(F)c(Cl)c3)CN2)CC1 | 212
46 | OCc1cnoc1-c1ccc(F)c(F)c1 | 72 to 73
47 | CCCCC(Nc1ccncc1)c1ccccc1 (configuration not stated) | 118
48 | COc1cc(C)c(S(=O)(=O)c2ccccc2)cc1OC | 162 to 163
49 | CC(C)C[C@H](NC(=O)OCc1ccccc1)C(=O)N[C@@H](Cc1ccccc1)C(=O)CSc1ccccc1 | 105 to 106
50 | Cc1ccccc1C(=O)Nc1ccc(C(=O)N2CCCC(NC(=O)CN(C)C)c3ccccc32)cc1 (configuration not stated) | 214 to 216

Further lines, results first:

Row | melting point [°C] | SMILES
51 | 162 | O=C(NCC1C2(CCCC1(c1ccccc1)c1ccccc1)OCCO2)c1ccccc1 (racemic)
52 | 86 to 87 | CN(C)CCCCC(N)=O
53 | 206 | N#CC1CCN(C(c2ccccc2)(c2ccccc2)c2ccccc2)CC1
54 | 124 to 125 | CC(N)=CC(=O)C1=C(C)CCCC1(C)C
55 | 70 to 72 | CCCCCCCCCCCCCCCCCCN(C)S(=O)(=O)c1cc(C(=O)OC)c([N+](=O)[O-])c(C(=O)OC)c1
56 | 110 to 111 | COc1cccc(C2CCCN2CCN2C(=O)c3ccccc3C2=O)c1 (configuration not stated)
57 | 200 | CCOc1cc(CCCN2CCc3cc(OC)c(OC)cc3C2)ccc1NC(=O)c1cccc2c(=O)c3cccc(F)c3[nH]c12
58 | 174 to 177 | CCOC(=O)C(=O)Nc1ccc2c(=O)n3c(nc2c1)C(=Cc1cccc(OC)c1OCC)CC3
59 | 158 to 162 | N#Cc1cc(N)ccc1N1CCC(c2ccccc2)CC1
60 | 226 to 228 | COc1nc(Br)cnc1NS(=O)(=O)c1cccc2c(NC(=O)OCc3ccccc3)cccc12
61 | 116 to 119 | CC(C)N(C(N)=O)c1ccc2c(c1)OCO2
62 | 82 to 86 | COC(=O)CCCc1cc2nc(Cl)ccc2n1S(=O)(=O)c1cccc(-c2nccs2)c1
63 | 180 to 182 | Nc1cccc(-c2ccc(CCN3CCN(C(=O)NC4CCCCC4)CC3)cc2)n1
64 | 66 to 68 | Cc1ccc([N+](=O)[O-])c(C=O)c1C
65 | 122 to 126 | Cn1nc2ccccc2c1C(=O)NCC1CCN(CCc2ccc(F)cc2F)CC1
66 | 120 to 122 | N#CCCCCCn1nc(-c2c(-c3ccccc3)nn3ccccc23)ccc1=O
67 | 195 to 196 | CCCc1nc2c(ccc3cc(C(=O)N4CCC(Cc5ccccc5)CC4)[nH]c32)o1
68 | 229 | c1ccc2c(c1)CCc1c-2n[nH]c1-c1ccncc1
69 | 140 to 145 | CCOc1c(Nc2cccnc2)c(=O)c1=O
70 | 168 to 169 | CCOC(=O)C(=O)Nc1nnc2c3c(c(N4CCCCC4)nn12)CCCC3
71 | 247 to 248 | O=[N+]([O-])c1cccc2c1sc1c(Nc3cccc(Br)c3)ncnc12
72 | 193 to 194 | Cn1cc(C(=O)NCc2ccc(Cl)cc2)c(=O)c2sc(CO)c(COCC[Si](C)(C)C)c21
